The values below come from the SangsterLogP compilation.

A short description of series [1]: method code SF-AS, from Korenman, Y. (1973). Extraction of p-halophenols. Zh. Prikl. Khim., 46(11)2754-2755. As to conditions: pH 7.4.
Series [2] is described as follows: method code SF-GLC, from Hashimoto, S.; Schneider, S.; Yamamoto, T.; Morita, M. (1994). Aqueous solubility and octanol-water partition coefficient of 3,3',4,4'-tetrachloroazobenzene. 20, 125-128.
A short description of series [3]: method code SF-F, from DOI: 10.1021/js950367f, PMID: 8901074.
Series [4] in a line: method code SF-AS, from DOI: 10.2307/3575639, PMID: 7313077. The note with it: pH 7.4.
A short description of series [5]: method code SF-AS, from DOI: 10.1211/0022357001773940, PMID: 10757413. The note with it: pH 7.4.
Experiment in series [6]: not given
The source holds these as a separate data set.

A short description of series [7]: method code SF, from PMID: 7412765. The note with it: pH 7.0.
Series [8] in a line: method code SF, from DOI: 10.1016/s0223-5234(98)80007-x.
Experiment in series [9]: not given
The source holds these as a separate data set.

Experiment in series [10]: not given
This is another data set of the same source.

Series [11] can be described thus: method code G-GLC, from DOI: 10.1021/es00171a006.
Experiment in series [12]: not given
The source holds these as a separate data set.

The nature of series [13]: method code SF, from DOI: 10.1002/ps.2780290303. As to conditions: pH 5.0.
Experiment in series [14]: not given
The source holds these as a separate data set.

Experiment in series [15]: not given
This is another data set of the same source.

Experiment in series [16]: not given
This is another data set of the same source.

Experiment in series [17]: not given
The source holds these as a separate data set.

Experiment in series [18]: not given
The source holds these as a separate data set.

The nature of series [19]: method code SF-AS, from DOI: 10.1021/jf950378u.
Experiment in series [20]: not given
This is another data set of the same source.

A short description of series [21]: method code SF-RC, from DOI: 10.1111/j.1399-3054.1990.tb08712.x.
A short description of series [22]: method code SF-HPLC, from DOI: 10.1016/j.ejmech.2008.06.022, PMID: 18687506. As to conditions: pH 7.4.
Series [23] can be described thus: method code SF-RC, from DOI: 10.1016/j.bmc.2005.04.014, PMID: 15911305. As to conditions: pH 7.4.
Series [24] is described as follows: method code SF-HPLC, from DOI: 10.1002/ps.2780440103. As to conditions: pH 2.0.
Series [25] is described as follows: method code SF-AS, from DOI: 10.1016/0014-5793(79)80862-5, PMID: 478007.
A short description of series [26]: method code SF-AS, from DOI: 10.1016/0891-5849(92)90146-8, PMID: 1334029. As to conditions: pH 2.0.
Series [27] in a line: method code SF-GLC, from DOI: 10.1016/s0380-1330(82)71969-0.
Series [28] can be described thus: from Gehmann, K., Nyfeler, R., Leadbeater, A. J., Nevill, D. J., & Sozzi, D. (1990). CGA 173506: A new phenylpyrrole fungicide for broad-spectrum disease control. In Brighton Crop Protection Conference, ….
Series [29] can be described thus: method code SF-AS, from PMID: 7646571. As to conditions: pH 7.0.
Series [30] can be described thus: method code SF, from DOI: 10.1021/jf60167a006.
Experiment in series [31]: not given
The source holds these as a separate data set.

A short description of series [32]: method code SF-AS, from DOI: 10.1111/j.2042-7158.1988.tb06996.x, PMID: 2907534. The note with it: pH 7.0.
Experiment in series [33]: not given
The source holds these as a separate data set.

Experiment in series [34]: not given
This is another data set of the same source.

Series [35] can be described thus: method code SF-AS, from PMID: 582409. The note with it: pH 7.4.
A short description of series [36]: method code SF-HPLC, from DOI: 10.1002/jps.22717, PMID: 21837649. The note with it: pH 7.4.
A short description of series [37]: method code SF-RC, from DOI: 10.1016/j.nucmedbio.2008.01.001, PMID: 18355684. As to conditions: pH 7.4.
Series [38] can be described thus: method code SF, from DOI: 10.1016/0304-4165(80)90351-7, PMID: 6243999. The note with it: pH 7.4.
The nature of series [39]: method code SF-HPLC, from DOI: 10.1021/jm00109a018, PMID: 2033591. The note with it: pH 7.0.
Experiment in series [40]: not given
The source holds these as a separate data set.

Experiment in series [41]: not given
The source holds these as a separate data set.

Experiment in series [42]: not given
This is another data set of the same source.

Series [43] is described as follows: method code SF-HPLC, from DOI: 10.3109/03639045.2012.690417, PMID: 22670797.
Series [44] in a line: method code SF-HPLC, from DOI: 10.1002/ps.2780170106. As to conditions: pH 2.0.
Experiment in series [45]: not given
This is another data set of the same source.

Experiment in series [46]: not given
The source holds these as a separate data set.

Experiment in series [47]: not given
This is another data set of the same source.

What is called logP is a log measure of how a compound divides between an organic and an aqueous phase. Low readings indicate lower lipophilicity, high ones higher lipophilicity. In turn, `Cc1cccc2cccc(C)c12` came in with a logP of 4.26.
Molecule `C=CCC1(CC(=C)Br)C(=O)NC(=O)N(C)C1=O` (stereo not drawn) displayed a logD in [1] of 1.78.
Turning to `Clc1ccc(/N=N/c2ccc(Cl)c(Cl)c2)cc1Cl`, the logP in series [2] was found to be 5.53.
Molecule `COc1c2ccoc2cc2oc(=O)ccc12` registered a logP in [3] of 2.
In turn, `CN(C)C(=O)c1cc(N2CC2)c([N+](=O)[O-])cc1[N+](=O)[O-]` gave a logD in series [4] of 0.63.
In the case of `Cc1c(O)c(=O)ccn1CCc1c[nH]cn1`, in [5], the logD is -0.05.
Take `Cc1[nH]cnc1CSCCNc1cc[nH]c(=O)n1`: the logP in series [6] is -0.4.
`CCCC(C)C1(CC)C(=O)NC(=O)NC1=O` (stereo not drawn) showed a logD in [7] of 1.75.
As to `Cc1nc2n(c1C)CNc1ccccc1-2`, the logP in [8] is 2.07.
In turn, `CCCCc1ccc(C(=O)O)cc1` displayed a logP in [9] of 3.7.
For the molecule `Clc1cc2c(oc3c(Cl)c(Cl)c(Cl)cc32)c(Cl)c1Cl`, the logP in [10] came to 6.6.
On to `Clc1c(Cl)c(Cl)c2c(oc3c(Cl)c(Cl)c(Cl)c(Cl)c32)c1Cl`, for which the logP in series [11] is 7.59.
`COc1ccc(Cc2cnc(N)nc2N)cc1Cl`: the logP in [12] was found to be 1.65.
`COC(=O)c1sccc1S(=O)(=O)NC(=O)Nc1nc(OC)nc(OC)n1` showed a logD in series [13] of 0.52.
In series [14], `CN(C)C(=O)CNCc1ccccc1` displayed a logP of 1.11.
On to `CCNc1nc(NC(C)C(C)C)nc(SC)n1` (stereo not drawn), for which, in [15], the logP worked out at 3.76.
With `O=C(O)CCCn1c(=O)oc2ccccc2c1=O`, the logP in [16] was found to be 0.2.
On to `O=[N+]([O-])c1nccn1CC(O)COc1ccccc1` (stereo not drawn), for which the log partition coefficient (logP) in series [17] came out at 1.4.
`CC[C@@H]1C(=O)OC[C@@H]1Cc1cncn1C` yielded a logP in [18] of 0.66.
Molecule `COC(=O)/C=C/c1ccc(O)c(OC)c1` displayed a logP in [19] of 1.2.
In series [20], `CNC(=O)OCc1nc(SC)n(C)c1COC(=O)NC` registered a logP of 0.74.
The molecule `O=C(O)Cc1cccc2ccccc12` returned a logP in [21] of 2.24.
`CC(=O)NCC(=O)NN=Nc1ccc(C#N)cc1` had a logD in [22] of 1.1.
In series [23], `Nc1nc(OCc2cccc(I)c2)c2nc[nH]c2n1` had a logD of 2.2.
In [24], `O=C(O)[C@H]1O[C@@H](Oc2ccc([N+](=O)[O-])cc2)[C@H](O)[C@@H](O)[C@@H]1O` came in with a logD of -0.75.
In series [25], `C#CC(C)N(C)C(=O)Nc1ccc(Cl)cc1` (stereo not drawn) had a logP of 3.
`CC(=O)C(=Cc1cc(O)c(O)c([N+](=O)[O-])c1)C(C)=O` yielded a logD in series [26] of 1.21.
In series [27], `Clc1cc(-c2ccccc2)c(Cl)c(Cl)c1Cl` returned a logP of 5.9.
As to `N#Cc1c[nH]cc1-c1cccc2c1OC(F)(F)O2`, in [28], the log partition coefficient (logP) turned out to be 2.6.
The molecule `Cn1c(=O)[nH]c2ncn(CC(C)(C)C)c2c1=O` gave a logD in [29] of 0.6.
`CCOP(=O)(OCC)Oc1ccc(S(C)(=O)=O)cc1` gave a logP in series [30] of 0.
Molecule `CCc1cccc2ccccc12` came in with a logP in [31] of 4.38.
Molecule `CCC1(c2ccccc2)C(=O)NC(=O)NC1=O` returned a logD in series [32] of 1.32.
In turn, `Clc1cc(Cl)c(-c2cc(Cl)c(Cl)cc2Cl)cc1Cl` yielded a logP in series [33] of 6.67.
Take `c1nnnn1C12CC3CC(CC(C3)C1)C2`: the logP in [34] was 2.95.
Take `Nc1nc(N)c2nc(-c3ccc(O)cc3)c(N)nc2n1`: the logD in series [35] was found to be 0.92.
Molecule `CCN1CCCc2cc(F)ccc21` registered a logD in series [36] of 2.82.
With `CCCSc1nsnc1C1=CCCN(C)C1`, the logD in [37] is 2.9.
On to `CC(=O)NC1CC(C)(C)N(O)C(C)(C)C1`, for which the logD in series [38] is 0.52.
On to `Cc1nc2c(N)ncnc2n1[C@@H]1O[C@H](CO)C[C@@H]1F`, for which the logD in series [39] worked out at 0.1.
In the case of `CCCCCOc1ccc(O)cc1`, in series [40], the logP is 3.26.
As to `Cc1noc(NS(=O)(=O)c2ccc(N)cc2)c1C`, the logP in series [41] was found to be 0.83.
In series [42], `CC1(C)NC(=O)N(c2ccc([N+](=O)[O-])c(C(F)(F)F)c2)C1=O` displayed a log partition coefficient (logP) of 2.31.
For `CC(C)(C)c1ccc(NC(N)=S)cc1`, the lipophilicity (logP) in [43] amounted to 2.6.
In series [44], `O=C(O)COc1cccc2ccccc12` returned a logD of 2.6.
Turning to `CC1=C(C)C(O)N(c2ccccc2)C1=O` (stereo not drawn), in series [45], the log partition coefficient (logP) came out at 1.63.
`Nc1nc(N)c2nc(-c3ccccc3)c(N)nc2n1` showed a lipophilicity (logP) in series [46] of 1.24.
As to `CCC(Oc1ccc(Cl)cc1C)C(=O)O` (stereo not drawn), the logP in series [47] was found to be 3.47.
